Laboratory results published in US8835489B2, “Compounds of the pterocarpanquinone family, method for preparing the same, pharmaceutical composition containing the new compounds of the pterocarpanquinone family, uses and therapeutic method” (Universidade Federal Do Rio de Janeiro, priority 2008, dated 2014).

Tests used:
[1] = system: TNF-α release by PBMC; assay: LPS-stimulated release of TNF-α by PBMC in vitro; type: cell-based, human; settings: FIG. 3, p<0.05
Method: Mononuclear cells were obtained from peripheral blood of healthy donors by gradient centrifugation in Ficoll. 20 ml peripheral blood were carefully added to 16 mL of Ficoll followed by centrifugation at 1500×g for 30 minutes. Once collected, the PBMC were washed twice with saline and resuspended in culture field RPMI 1640 containing 0.1 mg streptomycin/mL, penicillin 100 U/mL and supplemented with 10% of FCS. The PBMC resuspended in RPMI were seeded in 24-well plate (8×10^5 cells/well). The cells were incubated with LPS at a concentration of 2 μg/mL at 37° C. in 4% CO2 for 2 hours. After incubation with LPS, the supernatant was collected and centrifuged at 14,000×g for 1 minute to rule out any possible cell. The supernatant was stored at −20° C. for subsequent cytokine. […] A group of cells received only the vehicle.

[2] = system: neutrophils in LBA; assay: LPS inhalation in mice, neutrophils in bronchoalveolar lavage; settings: in vivo, FIG. 4, p<0.05 compared to vehicle group
Method: For inhalation of LPS, we used a glass inhalation chamber with a volume of 1 liter, with a capacity of 8 mice. The mice were placed in this chamber for five minutes and inhaled aerosols produced by positive pressure of 2 mL of a suspension of LPS containing 0.5 mg/mL, prepared in physiological saline (NaCl 0.9%). The control group inhaled saline only. Groups of animals were treated with LQB dissolved in physiological saline with 10% ethanol (vehicle) at doses of 1, 10 and 100 mg/kg. The substances were administered in a volume of 200 μL intraperitoneal (ip) 1 hour before LPS inhalation. In parallel, groups of animals were treated with 200 μL of the vehicle. Three hours after inhalation of LPS, animals were sacrificed by cervical dislocation, their tracheas were exposed, cannulated and lungs were washed with saline to a final volume of 1.5 mL in tubes kept at 4° C. […] An aliquot of 300 μL of lavage was used to count and identify the cells and the remainder was centrifuged at 1,500×g for 10 minutes (Sorvall, USA). […] The total number of cells was determined in a cell counter type Coulter Counter (Coulter Electronics Inc.—USA). The identification of different cell types present in BAL cytospin was made after 200 μl of LBA at 80×g for 1 minute (Shandon—USA). The slides prepared from cytospin stained with Diff-Quick kit (Shandon, USA). We counted approximately 200 cells on each slide. […]

O=C1C2=C(C(=O)c3ccccc31)[C@H]1Oc3ccccc3[C@H]1CO2 [LQB1]
release of TNF-α by PBMC [1]: inhibiting release of TNF-α | release of neutrophils in LBA [2]: inhibiting the release of neutrophils
